Columns and labels:
Conditions in all cases: 48 h
[1] = test system: NCI-H295R; assay: area under concentration-response curve (viability) (AUC (a.u.)); higher = less active
In short: (§1)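 Library compounds were tested at 11 concentrations against three adrenocortical carcinoma cell lines in 1,536-well plates. CellTiter-Glo luminescence was read after 48 h and normalised per plate to vehicle and empty-well controls. Only inhibitory or non-responding curve classes from fitted concentration-response curves contributed AC50 and area under the curve.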

[2] = test system: CU-ACC2; assay: as above
In short: as §1

[3] = test system: CU-ACC1; assay: as above
In short: as §1

[4] = test system: NCI-H295R; assay: AC50 viability; higher = less potent
In short: as §1

[5] = test system: CU-ACC2; assay: AC50 viability; higher = less potent
In short: as §1

[6] = test system: CU-ACC1; assay: AC50 viability; higher = less potent
In short: as §1

Structure (SMILES) | area under concentration-response curve [1] | area under concentration-response curve [2] | area under concentration-response curve [3] | AC50 viability [4] [µM] | AC50 viability [5] [µM] | AC50 viability [6] [µM]
CCc1cc(-c2n[nH]c(C)c2-c2ccc3c(c2)OCCO3)c(O)cc1O | 565 | 611 | 529 | 20.9 | 23.5 | 23.5
Clc1ccc(C(c2ccc(Cl)cc2)[n+]2ccn(CC(OCc3ccc(Cl)cc3Cl)c3ccc(Cl)cc3Cl)c2)cc1 (configuration not stated) | 445 | 528 | 442 | 8.33 | 11.8 | 13.2
COc1cc2c(Nc3ccc(Br)cc3F)ncnc2cc1OCC1CCN(C)CC1 | 403 | 418 | 401 | 16.6 | 16.6 | 14.8
CC[C@H]1CN2CCc3cc(OC)c(OC)cc3[C@@H]2C[C@@H]1C[C@H]1NCCc2cc(OC)c(OC)cc21 | 412 | 463 | 366 | 1.66 | 0.934 | 0.59
COc1nc(OCc2cccc(-c3ccccc3)c2C)ccc1CNCCNC(C)=O | 412 | 379 | 390 | 5.9 | 16.6 | 11.8
COc1cc2c(Nc3ccc(Cl)c(Cl)c3F)ncnc2cc1OC[C@@H]1C[C@@H]2CN(C)C[C@@H]2C1 | 430 | 449 | 407 | 14.8 | 13.2 | 9.34
Oc1c(Cl)cc(Cl)c2cccnc12 | 404 | 426 | 417 | 16.6 | 14.8 | 20.9
Cc1cccc(Nc2nc(N[C@@H]3CCCC[C@@H]3N)ncc2C(N)=O)c1 | 496 | 546 | 476 | 18.6 | 26.3 | 26.3
CC(C)CNc1ccnc(NCc2csc(-c3ccccc3)n2)n1 | 531 | 591 | 445 | 16.6 | 23.5 | 3.72
CCNC(=O)c1cc2c(-c3cc(OCCN4CCCC4)c(Cl)cc3Cl)nc(N)nc2s1 | 433 | 445 | 431 | 2.57 | 5.74 | 5.12
COC(=O)Nc1cc(Nc2cc(NC3CC3)c3ncc(C#N)n3n2)c(Cl)c(N2CCN(C)CC2)c1 | 443 | 506 | 466 | 2.63 | 6.61 | 6.61
Cc1ccc(NC(=O)c2ccc(CN3CCN(C)CC3)cc2)cc1Nc1nc(-c2cccnc2)cs1 | 547 | 586 | 503 | 18.6 | 23.5 | 23.5
CC(C)(C)c1cnc(CSc2cnc(NC(=O)C3CCNCC3)s2)o1 | 387 | 352 | 386 | 7.42 | 1.48 | 2.63
CC(C)(O)c1cc2nc(-c3cnc(N)nc3)nc(N3CCOCC3)c2s1 | 423 | 379 | 434 | 1.05 | 2.63 | 1.32
Fc1cc(-c2cccc3ncc(-c4cnn(C5CCNCC5)c4)nc23)cc(F)c1CN1CCOCC1 | 428 | 437 | 390 | 8.33 | 13.2 | 11.8
COCCOc1nc(-c2ccc(Cl)c(Cl)c2)n(-c2ccc(NC(=O)CCl)cc2)n1 | 391 | 415 | 383 | 3.72 | 3.72 | 5.25
COCCOC(=O)N1CCN([S+](=O)([O-])c2cc(F)c(Oc3ccc(Cl)cc3)c(F)c2)C(C(=O)NO)C1 (configuration not stated) | 507 | 428 | 471 | 20.9 | 10.5 | 13.2
CC(=O)c1cc2c(o1)C(=O)c1ccccc1C2=O | 351 | 377 | 270 | 0.934 | 1.66 | 0.263
COc1ccc(CNC(=O)Nc2ncc([N+](=O)[O-])s2)cc1 | 410 | 400 | 394 | 23.5 | 18.6 | 29.5
ClC1=CC\2=C(NC(=O)\C(=C2N[C@@H]3CN4CCC3CC4)C5=NC6=C([NH]5)C=CC=C6)C=C1 | 404 | 365 | 404 | 0.118 | 5.25 | 16.6
CC(C)(O)CNc1ncc(-c2ccnc(Nc3ccncc3)n2)c(CC2CC2)n1 | 487 | 485 | 442 | 18.6 | 20.9 | 10.5

Structure (SMILES) | area under concentration-response curve [1] | area under concentration-response curve [2] | area under concentration-response curve [3] | AC50 viability [4] [µM] | AC50 viability [5] [µM] | AC50 viability [6] [µM]
CC(C)NC(=O)COc1cccc(-c2nc(Nc3ccc4[nH]ncc4c3)c3ccccc3n2)c1 | 523 | 507 | 481 | 9.34 | 3.72 | 13.2
CN(C)CCN(C)C(=O)c1ccc(NC(=O)Nc2ccc(-c3nc(N4CCOCC4)c4ccn(CC(F)(F)F)c4n3)cc2)cc1 | 354 | 307 | 307 | 5.9 | 3.72 | 4.68
CN(Cc1ccc(/C=C/C(=O)NO)cc1)CC12CC3CC(CC(C3)C1)C2 | 365 | 408 | 303 | 1.66 | 1.05 | 1.05
CC(=O)O/N=C1\C(=O)N(Cc2cc(Cl)ccc2Cl)c2ccc(Cl)cc21 | 504 | 382 | 448 | 13.2 | 7.42 | 2.09
Cc1cc2c(C(N)=O)cccc2n1-c1nc2c(c(NCc3ccccc3)n1)COCC2 | 436 | 467 | 306 | 2.63 | 2.09 | 3.32
C[C@@H]1COCCN1c1cc(-c2ccnn2C)c2ccnc(-c3ccn[nH]3)c2n1 | 415 | 399 | 388 | 1.32 | 6.61 | 0.742
CO[C@@H]1[C@@H](O)[C@H](O)[C@@H](n2c3c(Cl)cccc3c3c4c(c5c6cccc(Cl)c6[nH]c5c32)C(=O)NC4=O)O[C@H]1CO | 494 | 438 | 461 | 2.63 | 8.33 | 3.32
CCCCCCC(C)(C)C1=CC2=C([C@H]3CC(=C/CC3C(C)(C)O2)\CO)C(=C1)O (some centres not stated) | 458 | 497 | 442 | 4.17 | 5.9 | 5.9
CCN1CCN(C(=O)Cc2ccc(Nc3ncc(F)c(Nc4ccc(C(=O)Nc5ccccc5Cl)cc4)n3)cc2)CC1 | 389 | 490 | 412 | 7.42 | 8.33 | 9.34
O=C(c1ccc(Nc2nccc(-c3cc4ccccc4s3)n2)cc1)N1CCC(N2CCCC2)CC1 | 462 | 521 | 446 | 6.61 | 7.42 | 9.34
CC1(C)CC(=O)c2c(C(F)(F)F)nn(-c3ccc(C(N)=O)c(NC4CCC(O)CC4)c3)c2C1 (configuration not stated) | 455 | 416 | 359 | 0.833 | 0.295 | 1.05
Cc1ccc2nc(NCCN)c3ncc(C)n3c2c1 | 423 | 369 | 413 | 14.8 | 10.5 | 14.8
CC(C)C[C@@H](C=O)NC(=O)[C@H](CC(C)C)NC(=O)[C@H](CC(C)C)NC(=O)OCc1ccccc1 | 407 | 409 | 374 | 0.742 | 0.934 | 1.48
CN(C)C/C=C/C(=O)Nc1cc2c(Nc3ccc(F)c(Cl)c3)ncnc2cc1O[C@H]1CCOC1 | 232 | 238 | 231 | 1.32 | 0.661 | 4.68
CN[S+](=O)([O-])c1ccc2c(c1)/C(=C/c1[nH]c3c(c1CCCN1CCN(C)CC1)CCCC3)C(=O)N2 | 458 | 504 | 440 | 16.6 | 16.6 | 23.5
CC(C)(O)/C=C\C(=O)[C@](C)(O)[C@H]1[C@H](O)C[C@]2(C)[C@@H]3CC=C4[C@@H](C=C(O)C(=O)C4(C)C)[C@]3(C)C(=O)C[C@@]12C | 406 | 377 | 316 | 5.25 | 0.332 | 0.372
O=C(/C=C/C#Cc1cccc(N[S+](=O)([O-])c2ccccc2)c1)NO | 542 | 544 | 497 | 4.56 | 6.45 | 4.07
O[C@H]1CC[C@@H](Oc2cccc3cnc(Nc4ccc5nc[nH]c5c4)nc23)CC1 | 409 | 331 | 403 | 2.63 | 1.32 | 1.66
CCN1C(=O)\C(=C/C2=C(C)N=C(N)N=C12)C3=CC=N[NH]3 | 431 | 455 | 397 | 5.25 | 3.32 | 4.17
OCCNC1CCCc2c1[nH]c1ccc(-c3ccccc3)cc21 (configuration not stated) | 456 | 526 | 462 | 10.5 | 23.5 | 20.9
O=C(NC1CCNCC1)c1n[nH]cc1NC(=O)c1c(Cl)cccc1Cl | 542 | 512 | 464 | 16.6 | 3.32 | 9.34

From the supplement of paper PMC10949913
